Source: patent publication US7425640B2, “Substituted 5-carboxyamide pyrazoles and [1,2,4]triazoles as antiviral agents” (priority 2004, dated 2008)
Like-named read-outs stand apart in the source and are kept apart here.

Biological target: HCV RNA-dependent RNA polymerase NS5B (Δ21) (Hepatitis C virus genotype 1b, UniProt P26663)
Assay: Assay for HCV RNA-dependent RNA polymerase activity (SPA, [3H]-GTP incorporation)
Type: biochemical
Settings: 50 nM NS5B (Δ21)
Outline: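 NS5B (Δ21), 50 nM, was incubated 3 h at room temperature with biotinylated oligoG12/polyC template, 5 μM GTP plus [3H]-GTP, in HEPES pH 7.3 with MgCl2 and NaCl. [3H]-GTP incorporation was read by streptavidin SPA. IC50 came from single experiments across 11 two-fold dilutions (0.05–50 μM).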

[1] = Δ21 Activity (IC50 μM), class symbols
[2] = read-out: Δ21 Activity (IC50 μM), class symbols
[3] = Δ21 Activity (IC50 μM), numeric values

Sequence of HCV RNA-dependent RNA polymerase NS5B (Δ21) (P26663 2420-2989, stated change not applied): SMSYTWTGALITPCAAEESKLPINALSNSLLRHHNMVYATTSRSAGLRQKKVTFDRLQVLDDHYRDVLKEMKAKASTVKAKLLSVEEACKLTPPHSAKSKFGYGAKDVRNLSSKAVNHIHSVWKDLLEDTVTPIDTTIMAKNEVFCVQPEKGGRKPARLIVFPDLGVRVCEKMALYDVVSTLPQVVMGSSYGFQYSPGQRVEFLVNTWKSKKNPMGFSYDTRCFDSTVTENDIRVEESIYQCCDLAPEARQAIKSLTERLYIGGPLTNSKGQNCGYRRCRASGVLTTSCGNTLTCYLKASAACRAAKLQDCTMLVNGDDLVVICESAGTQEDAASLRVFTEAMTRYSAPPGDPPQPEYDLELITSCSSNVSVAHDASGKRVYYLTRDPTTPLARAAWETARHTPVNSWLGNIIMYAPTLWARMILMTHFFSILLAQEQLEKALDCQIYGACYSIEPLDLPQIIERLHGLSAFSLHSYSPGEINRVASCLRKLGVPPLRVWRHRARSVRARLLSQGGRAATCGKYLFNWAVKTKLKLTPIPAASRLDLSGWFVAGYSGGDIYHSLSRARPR

SMILES	IC50 [1]	IC50 [2]	further results
Cc1ccc(OCc2ccccc2)c(NC(=O)c2cc(-c3nnn[nH]3)nn2CC(=O)N[C@H]2CCCC[C@@H]2OCc2ccccc2)c1 [Compound 1]	< 0.05 µM		
CC(C)S(=O)(=O)Nc1cc(C(=O)N[C@H]2CCCC[C@@H]2OCc2ccccc2)n(CC(=O)N[C@H]2CCCC[C@@H]2OCc2ccccc2)n1 [Compound 78]		0.1 to 1 µM	
Cc1ccc(OCC2CCC2)c(NC(=O)c2cc(C(=O)O)nn2CC(=O)N[C@H]2CCCC[C@@H]2OCc2ccccc2)c1 [Compound 9]	< 0.05 µM		
CCOC(=O)c1cc(C(=O)N[C@H]2CCCC[C@@H]2OCc2ccccc2)n(CC(=O)Nc2cc(C)ccc2OCC2CCC2)n1 [Compound 206]	> 1 µM		
O=C(Cn1nc(C(=O)NCc2cccnc2)cc1C(=O)N[C@H]1CCCC[C@@H]1OCc1ccccc1)N[C@H]1CCCC[C@@H]1OCc1ccccc1 [Compound 142]		0.1 to 1 µM	
O=C(Cn1nc(C(=O)N2c3ccccc3CCc3ccccc32)cc1C(=O)N[C@H]1CCCC[C@@H]1OCc1ccccc1)N[C@H]1CCCC[C@@H]1OCc1ccccc1 [Compound 119]		0.1 to 1 µM	
CC(=O)Nc1cc(C(=O)N[C@H]2CCCC[C@@H]2OCc2ccccc2)n(CC(=O)NC2CCCC[C@@H]2OCc2ccccc2)n1 (stereo partly shown) [Compound 196]	> 1 µM		
CCOC(CCCNC(=O)c1cc(C(=O)N[C@H]2CCCC[C@@H]2OCc2ccccc2)n(CC(=O)NC2CCCC[C@@H]2OCc2ccccc2)n1)OCC (stereo partly shown) [Compound 195]	> 1 µM		
O=C(Cn1nc(NC(=O)C(F)(F)F)cc1C(=O)N[C@H]1CCCC[C@@H]1OCc1ccccc1)N[C@H]1CCCC[C@@H]1OCc1ccccc1 [Compound 75]		0.1 to 1 µM	
O=C(Cn1nc(NS(=O)(=O)c2ccc(Cl)cc2)cc1C(=O)N[C@H]1CCCC[C@@H]1OCc1ccccc1)N[C@H]1CCCC[C@@H]1OCc1ccccc1 [Compound 11]	< 0.05 µM		
O=C(Cn1nc(C(=O)NC2CC2)cc1C(=O)N[C@H]1CCCC[C@@H]1OCc1ccccc1)N[C@H]1CCCC[C@@H]1OCc1ccccc1 [Compound 122]		0.1 to 1 µM	
COc1ccc(CNC(=O)c2cc(C(=O)N[C@H]3CCCC[C@@H]3OCc3ccccc3)n(CC(=O)N[C@H]3CCCC[C@@H]3OCc3ccccc3)n2)c(OC)c1 [Compound 28]	0.05 to 0.1 µM		
COc1ccc(NC(=O)c2cc(C(=O)O)nn2CC(=O)N[C@H]2CCCC[C@@H]2OCc2ccccc2)c(OCc2ccccc2)c1 [Compound 201]	> 1 µM		
CC(NC(=O)c1cc(C(=O)N[C@H]2CCCC[C@@H]2OCc2ccccc2)n(CC(=O)N[C@H]2CCCC[C@@H]2OCc2ccccc2)n1)c1ccccc1 (stereo partly shown) [Compound 95]		0.1 to 1 µM	
CC(=O)Nc1ccc(S(=O)(=O)Nc2cc(C(=O)N[C@H]3CCCC[C@@H]3OCc3ccccc3)n(CC(=O)N[C@H]3CCCC[C@@H]3OCc3ccccc3)n2)cc1 [Compound 82]		0.1 to 1 µM	
O=C(Cn1nc(NS(=O)(=O)c2ccc(Br)cc2)cc1C(=O)N[C@H]1CCCC[C@@H]1OCc1ccccc1)N[C@H]1CCCC[C@@H]1OCc1ccccc1 [Compound 13]	< 0.05 µM		
Cc1ccc(OCC2CCC2)c(NC(=O)c2cc(C(=O)O)nn2CC(=O)N[C@H]2CCCC[C@@H]2OCc2ccccc2)c1 [drawing 248]			IC50 [3]: 0.055 µM

SMILES	IC50 [1]	IC50 [2]	further results
CC(=O)c1cc(C(=O)N[C@H]2CCCC[C@@H]2OCc2ccccc2)n(CC(=O)N[C@H]2CCCC[C@@H]2OCc2ccccc2)n1 [Compound 126]		0.1 to 1 µM	
C[C@H](NC(=O)c1cc(C(=O)N[C@H]2CCCC[C@@H]2OCc2ccccc2)n(CC(=O)N[C@H]2CCCC[C@@H]2OCc2ccccc2)n1)c1cccc2ccccc12 [Compound 27]	0.05 to 0.1 µM		
Cc1ccc(OCC2CCC2)c(NC(=O)Cn2nc(C(=O)O)cc2C(=O)N[C@H]2CCCC[C@@H]2OCc2ccccc2)c1 [Compound 43]	0.05 to 0.1 µM		
O=C(Cn1nc(C(=O)N2CCN(Cc3ccccc3)CC2)cc1C(=O)N[C@H]1CCCC[C@@H]1OCc1ccccc1)N[C@H]1CCCC[C@@H]1OCc1ccccc1 [Compound 156]		0.1 to 1 µM	
N#CNC(=O)c1cc(C(=O)Nc2ccccc2OCc2ccccc2)n(CC(=O)N[C@H]2CCCC[C@@H]2OCc2ccccc2)n1 [drawing 245]			IC50 [3]: 0.024 µM
CCOC(=O)c1cc(C(=O)N[C@H]2CCCC[C@@H]2OCc2ccccc2)n(CC(=O)Nc2ccccc2Oc2ccc(Cl)c(C)c2)n1 [Compound 136]		0.1 to 1 µM	
O=C(Cn1nc(C(=O)NCCc2ccccc2Cl)cc1C(=O)N[C@H]1CCCC[C@@H]1OCc1ccccc1)N[C@H]1CCCC[C@@H]1OCc1ccccc1 [Compound 103]		0.1 to 1 µM	
O=C(Cn1nc(C(=O)NCC2CCCCC2)cc1C(=O)N[C@H]1CCCC[C@@H]1OCc1ccccc1)N[C@H]1CCCC[C@@H]1OCc1ccccc1 [Compound 137]		0.1 to 1 µM	
CN(C(=O)Cn1nc(C(=O)O)cc1C(=O)N[C@H]1CCCC[C@@H]1OCc1ccccc1)[C@H]1CCCC[C@@H]1OCc1ccccc1 [Compound 123]		0.1 to 1 µM	
CCOC(=O)c1cc(C(=O)N(C)[C@H]2CCCC[C@@H]2OCc2ccccc2)n(CC(=O)N[C@H]2CCCC[C@@H]2OCc2ccccc2)n1 [Compound 181]	> 1 µM		
O=C(Cn1nc(C(=O)Nc2nnn[nH]2)cc1C(=O)Nc1ccccc1OCc1ccccc1)N[C@H]1CCCC[C@@H]1OCc1ccccc1 [Compound 20]	0.05 to 0.1 µM		
O=C(Cn1nc(C(=O)NCCc2ccccc2)cc1C(=O)N[C@H]1CCCC[C@@H]1OCc1ccccc1)N[C@H]1CCCC[C@@H]1OCc1ccccc1 [Compound 131]		0.1 to 1 µM	
O=C(Cn1nc(C(=O)O)cc1C(=O)N[C@@H]1CCCC[C@@H]1OCc1ccccc1)N[C@H]1CCCC[C@H]1OCc1ccccc1 [Compound 132]		0.1 to 1 µM	
O=C(Cn1nc(NS(=O)(=O)Cc2ccccc2)cc1C(=O)N[C@H]1CCCC[C@@H]1OCc1ccccc1)N[C@H]1CCCC[C@@H]1OCc1ccccc1 [Compound 84]		0.1 to 1 µM	
CN(C)S(=O)(=O)Nc1cc(C(=O)N[C@H]2CCCC[C@@H]2OCc2ccccc2)n(CC(=O)N[C@H]2CCCC[C@@H]2OCc2ccccc2)n1 [Compound 45]	0.05 to 0.1 µM		
O=C(Cn1nc(NS(=O)(=O)c2ccc3ccccc3c2)cc1C(=O)N[C@H]1CCCC[C@@H]1OCc1ccccc1)N[C@H]1CCCC[C@@H]1OCc1ccccc1 [Compound 33]	0.05 to 0.1 µM		
Cc1ccc(OCc2ccccc2)c(NC(=O)c2cc(C(N)=O)nn2CC(=O)N[C@H]2CCCC[C@@H]2OCc2ccccc2)c1 [Compound 98]		0.1 to 1 µM	
